Columns and labels:
[1] = target: T1, recombinant MARK4 (Homo sapiens, UniProt Q96L34); experiment: Isothermal titration calorimetry; type: binding; conditions: for ITC binding in words: at lower stoichiometry, at high concentration they precipitate with MARK4; for Kd: read-out: Ka (converted)
T1 construct: made in house; host or cells: bacterial cells (Luria-Bertani broth, IPTG induction)
T1 sequence (Q96L34 1-752): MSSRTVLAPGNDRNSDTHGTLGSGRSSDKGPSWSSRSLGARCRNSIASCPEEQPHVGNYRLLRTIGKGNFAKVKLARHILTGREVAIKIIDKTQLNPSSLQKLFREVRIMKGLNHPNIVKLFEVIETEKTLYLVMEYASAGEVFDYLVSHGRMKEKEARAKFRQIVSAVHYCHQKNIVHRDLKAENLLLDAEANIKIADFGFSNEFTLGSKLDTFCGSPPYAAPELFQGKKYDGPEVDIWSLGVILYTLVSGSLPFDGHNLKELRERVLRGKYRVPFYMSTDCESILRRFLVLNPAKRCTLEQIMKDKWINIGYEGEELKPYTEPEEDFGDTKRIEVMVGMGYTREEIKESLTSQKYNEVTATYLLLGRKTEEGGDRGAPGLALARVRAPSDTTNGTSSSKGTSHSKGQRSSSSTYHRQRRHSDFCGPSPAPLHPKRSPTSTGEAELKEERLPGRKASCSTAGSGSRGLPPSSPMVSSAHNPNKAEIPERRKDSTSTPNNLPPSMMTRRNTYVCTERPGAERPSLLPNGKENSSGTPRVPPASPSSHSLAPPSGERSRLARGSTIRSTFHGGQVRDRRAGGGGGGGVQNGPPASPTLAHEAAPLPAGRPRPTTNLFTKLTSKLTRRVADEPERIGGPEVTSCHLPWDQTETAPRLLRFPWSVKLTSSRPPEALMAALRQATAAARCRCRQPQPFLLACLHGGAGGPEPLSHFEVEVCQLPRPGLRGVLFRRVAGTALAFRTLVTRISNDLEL
Text: In order to measure the actual binding affinity and stoichiometry of selected compounds with the recombinant MARK4, isothermal titration calorimetry (ITC) has been carried out. Negative heat impulses in the upper panel of each isotherm indicate exothermic nature of binding. The amount of heat produced as a result of each injection helps to deliver the molar ratio of studied compound to that of MARK4. Thermodynamic parameters associated with binding of MARK4-compounds (Ka, binding constant and ΔH, enthalpy change) are shown in Table 1.
Figure 5 ITC measurement showing the titration of selected acridone derivatives with recombinant MARK4. (Top) Raw data plot of heat produced against time for the titration of 1000–1500 µM (A) compound 7b, (B) compound 7d, (C) compound 7f, into 20–25 µM MARK4. (Bottom) Corresponding binding isotherm obtained after integration of peak area and normalization to yield a plot of molar enthalpy change against each compound-MARK4 ratio.
ITC experiments were performed on a VP-ITC microcalorimeter (MicroCal, Inc. GE, MicroCal, USA) by following our previously published protocols[41],[47]. For sample preparation, recombinant MARK4 was extensively dialyzed in 20 mM Tris buffer, pH 8.5 and the working solutions of acridone derivatives were prepared in last dialyzing buffer. The titration data so obtained was analyzed with the help of MicroCal Origin 7.0 software provided with the instrument. The thermodynamic parameters of binding such as association constant (Ka), stoichiometry of binding (n), and enthalpy change (ΔH) were determined by fitting the binding isotherm into the ‘one-set of sites’ binding model.

[2] = tested on: panel of kinases of CAMK family; experiment: Single dose kinase inhibition profiling (ADP-Glo); type: biochemical; conditions: single dose of 10 µM
Text: The selectivity of kinase inhibitors is commonly evaluating them against a panel of closely related kinases based on the hypothesis that off-target interfaces are more likely to be associated with same/different families of kinases with similar amino acid sequence. So, we evaluated the fraction of kinase targets that are within the same kinase family (CAMK family). […] These kinase selectivity results signify the use of these compounds as potential and selective inhibitors towards MARK4.
Figure 7 Kinase selectivity and tau-phosphorylation assay. Kinase selectivity results of (A) compound 7b, (B) compound 7d, (C) compound 7f. The selected panel of kinases was incubated with 10 µM dose of selected compounds and analyzed for percent activity values. The percent kinase activity was calculated in the compound-containing reactions and plotted in terms of percent kinase activity inhibition. (D) Representative flow cytometry histogram of SH-SY5Y cell fractions stained with phosphorylated anti-tau antibodies, each histogram represents the phosphorylation status of tau under different treatments as mentioned in inset.
In vitro profiling of the twenty five members of CAMK family (CAMK-1 and CAMK-2) of kinases was performed with the help of kinase screening kit by following the manufacturer’s protocols (Promega, Madison, USA). Briefly, add desired concentration of each compound (10 µM) to corresponding well of 384-well assay plate. Consecutively, 2 µl of kinase working stock solution was added to each wells of assay plate. Gently mix the reaction mixture on a plate shaker for 2 minutes, centrifuge the assay plate to bring mixture of reagents to the bottom of the wells. Incubate the plate at room temperature (25 °C) for 10 minutes. […] After the completion of reaction, measure the luminescence using an integration time of 0.5 seconds per well. Using net luminescence of the no-compound control (negative control) reactions to represent 100% kinase activity, the percent kinase activity was calculated in the compound-containing reactions and plotted in terms of percent kinase activity inhibition.

Compound	ITC binding in words [1]	Kd ([1]; from ITC, single-site fitting)	within-family kinase selectivity [2]	ΔH ([1]; from ITC, single-site fitting)
COC(=O)Cn1c2ccccc2c(=O)c2cc(C)ccc21 [Compound 5, Methyl 2-(2-methyl-9-oxoacridin-10(9H)-yl)acetate]	do not show significant binding	–	–	–
Cc1ccc2c(c1)c(=O)c1ccccc1n2CC(=O)NCc1ccccc1 [Compound 7b, N-benzyl-2-(2-methyl-9-oxoacridin-10(9H)-yl)acetamide]	–	15.6 µM	more strongly inhibits MARK4 as compared to other kinases of same family	–
COc1ccc(CNC(=O)Cn2c3ccccc3c(=O)c3cc(C)ccc32)cc1 [Compound 7d, N-(4-methoxybenzyl)-2-(2-methyl-9-oxoacridin-10(9H)-yl)acetamide]	–	15.8 µM	more strongly inhibits MARK4 as compared to other kinases of same family	–
COc1ccccc1NC(=O)Cn1c2ccccc2c(=O)c2cc(C)ccc21 [Compound 7h, N-(2-methoxyphenyl)-2-(2-methyl-9-oxoacridin-10(9H)-yl)acetamide]	do not show significant binding	–	–	–
Cc1ccc(NC(=O)Cn2c3ccccc3c(=O)c3cc(C)ccc32)cc1 [Compound 7f, 2-(2-Methyl-9-oxoacridin-10(9H)-yl)-N-(p-tolyl)acetamide]	–	7.41 µM	more strongly inhibits MARK4 as compared to other kinases of same family	−3.01 × 10^4 ± 590.10 cal/mol

— article PMC6368574, “Probing the Inhibition of Microtubule Affinity Regulating Kinase 4 by N-Substituted Acridones” (Scientific Reports, 2019)
